BindingDB's records for PubMed 34138567 (National Clinical Research Center For Geriatrics, 2021)

Key:
[1] = Inhibition of PI3Kdelta in anti-FceRI-stimulated human Basophil cells degranulation incubated for 30 mins
[2] = Inhibition of PI3Kdelta in conA-stimulated primary human T cell proliferation incubated for 1 hr by CellTiter-glo luminescent assay

C[C@H]1CC[C@@H](c2nc3cccc(Cl)c3c(=O)n2-c2cccc(F)c2)N1c1ncnc2[nH]cnc12
IC50 [1]: 8.2 nM | IC50 [2]: 21 nM
